Reference: US8129366B2, “VLA-4 inhibitory drug” (Daiichi Sankyo Company, Limited, priority 2005, dated 2012)
Converted amounts (≈) assume the structure as drawn.

What was measured:
hα4 and β1 integrins = biological target: T1, hα4 and β1 integrins (Homo sapiens, UniProt P05556+P13612); assay: In vitro inhibition of binding between CHO cells expressing hα4 and β1 integrins and Eu3+-hVCAM-1 D1D7-IgG; conditions: for Ki: CHO cells expressing hα4 and β1 integrins, Eu3+-hVCAM-1 D1D7-IgG ligand, without HSA; for IC50: in the presence of 3% human serum albumin (HSA final concentration 3%)
T1 construct: expressed in transfected cells; host or cells: CHO cells
T1 sequence (P13612 34-1032): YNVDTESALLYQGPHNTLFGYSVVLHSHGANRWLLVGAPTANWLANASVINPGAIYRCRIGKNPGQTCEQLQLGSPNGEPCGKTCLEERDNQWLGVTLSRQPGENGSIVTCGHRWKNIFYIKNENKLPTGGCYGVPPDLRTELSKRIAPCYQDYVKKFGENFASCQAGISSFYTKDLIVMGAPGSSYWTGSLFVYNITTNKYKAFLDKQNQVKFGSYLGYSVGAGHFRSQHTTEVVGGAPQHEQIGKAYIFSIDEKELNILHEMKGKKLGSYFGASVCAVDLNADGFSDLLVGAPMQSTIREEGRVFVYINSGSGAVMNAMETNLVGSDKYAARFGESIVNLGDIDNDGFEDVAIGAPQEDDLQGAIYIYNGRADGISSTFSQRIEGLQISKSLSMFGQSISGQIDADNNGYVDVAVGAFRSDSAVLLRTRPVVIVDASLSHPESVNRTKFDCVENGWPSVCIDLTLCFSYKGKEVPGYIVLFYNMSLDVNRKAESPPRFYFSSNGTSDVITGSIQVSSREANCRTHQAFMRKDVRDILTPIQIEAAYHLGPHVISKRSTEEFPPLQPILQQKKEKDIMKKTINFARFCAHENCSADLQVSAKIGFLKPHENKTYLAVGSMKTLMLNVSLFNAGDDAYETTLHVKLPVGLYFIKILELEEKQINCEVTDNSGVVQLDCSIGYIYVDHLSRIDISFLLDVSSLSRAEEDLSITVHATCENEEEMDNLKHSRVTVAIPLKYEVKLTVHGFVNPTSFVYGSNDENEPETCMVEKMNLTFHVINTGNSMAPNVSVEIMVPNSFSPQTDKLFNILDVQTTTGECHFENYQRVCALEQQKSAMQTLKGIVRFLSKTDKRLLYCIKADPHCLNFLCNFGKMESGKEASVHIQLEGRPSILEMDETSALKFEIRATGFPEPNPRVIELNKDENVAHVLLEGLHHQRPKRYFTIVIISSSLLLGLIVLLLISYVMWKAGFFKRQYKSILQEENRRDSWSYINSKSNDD
T1 sequence (P05556 21-798): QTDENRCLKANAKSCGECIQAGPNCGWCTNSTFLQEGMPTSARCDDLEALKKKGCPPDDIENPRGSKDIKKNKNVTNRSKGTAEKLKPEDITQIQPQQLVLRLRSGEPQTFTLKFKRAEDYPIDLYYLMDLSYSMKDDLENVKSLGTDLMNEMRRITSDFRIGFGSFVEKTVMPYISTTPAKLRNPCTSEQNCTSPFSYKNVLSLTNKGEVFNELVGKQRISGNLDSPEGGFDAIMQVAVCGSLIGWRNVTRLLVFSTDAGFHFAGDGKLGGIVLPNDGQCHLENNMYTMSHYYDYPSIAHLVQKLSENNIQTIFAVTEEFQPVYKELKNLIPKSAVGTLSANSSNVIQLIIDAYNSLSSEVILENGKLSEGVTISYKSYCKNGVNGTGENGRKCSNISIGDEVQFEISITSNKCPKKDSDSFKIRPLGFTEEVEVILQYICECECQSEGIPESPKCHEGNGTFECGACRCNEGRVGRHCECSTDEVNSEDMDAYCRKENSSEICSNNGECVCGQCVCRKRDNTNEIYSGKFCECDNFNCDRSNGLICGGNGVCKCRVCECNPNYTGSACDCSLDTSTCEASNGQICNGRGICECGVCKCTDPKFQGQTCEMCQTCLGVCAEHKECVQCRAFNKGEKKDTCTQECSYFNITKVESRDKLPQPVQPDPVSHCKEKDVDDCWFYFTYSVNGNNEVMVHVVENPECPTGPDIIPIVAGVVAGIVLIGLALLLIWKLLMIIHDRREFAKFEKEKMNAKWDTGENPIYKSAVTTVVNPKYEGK
Method in brief: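 Transfected CHO cells, cultured 2 days, were incubated with compound and Eu³⁺-hVCAM-1 D1D7-IgG (diluted to 2 nM) for 1 h at room temperature. Buffer was 25 mM HEPES pH 7.5 with 1 mM Ca²⁺, 1 mM Mg²⁺, 4 mM Mn²⁺ and 0.1% BSA, ±3% HSA final. Cells were washed at 4 °C and read by DELFIA time-resolved fluorescence; Ki was derived from IC50 using the Scatchard Kd.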

[1] = Solubility test in first and second liquid of the Japanese Pharmacopoeia
Procedure: The solubilities of the substance under test in the first liquid (JP1, pH=1.2) of the Japanese Pharmacopoeia and the second liquid (JP2, pH=6.8) of the Japanese Pharmacopoeia, were evaluated.

[2] = first liquid of the Japanese Pharmacopoeia (JP1), pH 1.2, simulated gastric fluid, First liquid of Japanese Pharmacopoeia (μg/mL), JP1, pH=1.2
[3] = second liquid of the Japanese Pharmacopoeia (JP2), pH 6.8, aqueous buffer, Second liquid of Japanese Pharmacopoeia (μg/mL), JP2, pH=6.8

O=C(Nc1cc(F)c(CC(=O)N2C[C@@H](N3CCC(N4CCOCC4)CC3)C[C@H]2CO[C@H]2CC[C@H](C(=O)O)CC2)cc1Cl)c1csc2ccccc12 [Example 110, Trans-4-[1-[[4-[(benzo[b]thiophen-3-ylcarbonyl)amino]-5-chloro-2-fluorophenyl]acetyl]-(4S)-[4-(morpholin-4-yl)piperidin-1-yl]-(2S)-pyrrolidinylmethoxy]cyclohexanecarboxylic acid]
Ki (hα4 and β1 integrins): 0.25 nM
IC50 (hα4 and β1 integrins): 30 nM
solubility [1, 2]: > 2000 µg/mL
solubility [1, 3]: > 2000 µg/mL

CO[C@@H]1CCCN([C@H]2C[C@@H](CO[C@H]3CC[C@H](C(=O)O)CC3)N(C(=O)Cc3cc(Cl)c(NC(=O)c4csc5ccccc45)cc3F)C2)C1 [Example 106, Trans-4-[1-[[4-[(benzo[b]thiophen-3-ylcarbonyl)amino]-5-chloro-2-fluorophenyl]acetyl]-(4S)-[(3R)-methoxypiperidin-1-yl]-(2S)-pyrrolidinylmethoxy]cyclohexanecarboxylic acid]
Ki (hα4 and β1 integrins): 1.2 nM
IC50 (hα4 and β1 integrins): 9.2 nM
solubility [1, 2]: > 2000 µg/mL
solubility [1, 3]: 1580 µg/mL (≈ 2310 µM)

CN(C)C(=O)[C@@H]1CCCN1[C@H]1C[C@@H](CO[C@H]2CC[C@H](C(=O)O)CC2)N(C(=O)Cc2cc(Cl)c(NC(=O)c3csc4ccccc34)cc2F)C1 [Example 42]
Ki (hα4 and β1 integrins): 0.32 nM
IC50 (hα4 and β1 integrins): 1.1 nM
Solubility, Second liquid of Japanese Pharmacopoeia ([1]; JP2, pH=6.8): 1931 µg/mL
solubility [1, 2]: > 2000 µg/mL
solubility [1, 3]: > 2000 µg/mL

CO[C@H]1CN([C@H]2C[C@@H](CO[C@H]3CC[C@H](C(=O)O)CC3)N(C(=O)Cc3cc(Cl)c(NC(=O)c4csc5ccccc45)cc3F)C2)C[C@@H]1OC [Example 52, Trans-4-[1-[[4-[(benzo[b]thiophen-3-ylcarbonyl)amino]-5-chloro-2-fluorophenyl]acetyl]-(4S)-[(3S,4S)-dimethoxypyrrolidin-1-yl]-(2S)-pyrrolidinylmethoxy]cyclohexanecarboxylic acid]
Ki (hα4 and β1 integrins): 1.2 nM
IC50 (hα4 and β1 integrins): 8.4 nM
solubility [1, 2]: 1000 µg/mL (≈ 1420 µM)
solubility [1, 3]: 1000 µg/mL (≈ 1420 µM)

O=C(Nc1cc(Cl)c(CC(=O)N2C[C@@H](N3C[C@@H]4OCO[C@@H]4C3)C[C@H]2CO[C@H]2CC[C@H](C(=O)O)CC2)cc1Cl)c1coc2ccccc12 [Example 73, Trans-4-[1-[[4-[(benzo[b]furan-3-ylcarbonyl)amino]-2,5-dichlorophenyl]acetyl]-(4S)-[(3a,6a-cis)-tetrahydro[1,3]dioxolo[4,5-c]pyrrol-5-yl]-(2S)-pyrrolidinylmethoxy]cyclohexanecarboxylic acid]
Ki (hα4 and β1 integrins): 1.9 nM
IC50 (hα4 and β1 integrins): 22 nM
solubility [1, 2]: 1000 µg/mL (≈ 1460 µM)
solubility [1, 3]: 1000 µg/mL (≈ 1460 µM)

O=C(Nc1cc(Cl)c(CC(=O)N2C[C@@H](N3CCCC3)C[C@H]2CO[C@H]2CC[C@H](C(=O)O)CC2)cc1Cl)c1csc2ccccc12 [Example 31, Trans-4-[1-[[4-[(benzo[b]thiophen-3-ylcarbonyl)amino]-2,5-dichlorophenyl]acetyl]-(4S)-(pyrrolidin-1-yl)-(2S)-pyrrolidinylmethoxy]cyclohexanecarboxylic acid]
Ki (hα4 and β1 integrins): 1.2 nM
IC50 (hα4 and β1 integrins): 5.8 nM
solubility [1, 2]: 1840 µg/mL (≈ 2800 µM)
solubility [1, 3]: 1680 µg/mL (≈ 2560 µM)

C[C@@H]1CN([C@H]2C[C@@H](CO[C@H]3CC[C@H](C(=O)O)CC3)N(C(=O)Cc3ccc(NC(=O)c4nn(C)c5ccccc45)c(Cl)c3)C2)C[C@H](C)O1 [Example 88, Trans-4-[1-[[3-chloro-4-[(1-methyl-1H-indazol-3-ylcarbonyl)amino]phenyl]acetyl]-(4S)-(cis-2,6-dimethylmorpholin-4-yl)-(2S)-pyrrolidinylmethoxy]cyclohexanecarboxylic acid]
Ki (hα4 and β1 integrins): 1.5 nM
IC50 (hα4 and β1 integrins): 9 nM
solubility [1, 2]: 1100 µg/mL (≈ 1650 µM)
solubility [1, 3]: 1300 µg/mL (≈ 1950 µM)

O=C(Nc1cc(F)c(CC(=O)N2C[C@@H](N3CC(N4CCOCC4)C3)C[C@H]2CO[C@H]2CC[C@H](C(=O)O)CC2)cc1Cl)c1csc2ccccc12 [Example 27, Trans-4-[1-[[4-[(benzo[b]thiophen-3-ylcarbonyl)amino]-5-chloro-2-fluorophenyl]acetyl]-(4S)-[3-(4-morpholinyl)azetidin-1-yl]-(2S)-pyrrolidinylmethoxy]cyclohexanecarboxylic acid]
Ki (hα4 and β1 integrins): 3.8 nM
IC50 (hα4 and β1 integrins): 43 nM
solubility [1, 2]: 1000 µg/mL (≈ 1400 µM)
solubility [1, 3]: 1000 µg/mL (≈ 1400 µM)
